In PubChem BioAssay AID1919006 (Molecular Pharmacology Branch, DTP, NCI, 2023):
“And” between values parts separate entries of the source, which are not always exact repeats. Identical values can stand only once. One block for each compound: values may come before it.

Test system: 885512-296-R-J2-PDC complex spheroid growth, % test/control
Assay: Anticancer human tumor 885512-296-R-J2-PDC patient-derived breast carcinoma cell line growth inhibition [AhR]
Details: for viability, T/C: stronger effect = lower value
Outline: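 Complex tumor spheroids co-cultured with HUVEC and human MSC stroma; AhR antagonists tested in combination with standard-of-care and investigational agents. Top concentration at or near clinical Cmax (else 10 microM), half-log dilutions; growth expressed as percent test/control.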

[1] = curve of first compound, second compound 0.1 µM
[2] = curve of first compound, second compound 0.316 µM
[3] = curve of first compound, second compound 1 µM
[4] = curve of first compound, second compound 3.16 µM
[5] = curve of first compound, second compound 10 µM
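Also: spheroids exposed to compounds for seven days.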

- IC50 [1]: 6.62 µM
- IC50 [2]: 7.17 µM
- IC50 [3]: 6.44 µM
- IC50 [4]: 3.07 µM
- IC50 [5]: < 0.0316 µM
SMILES: O=C(c1cc(Cc2n[nH]c(=O)c3ccccc23)ccc1F)N1CCN(C(=O)C2CC2)CC1 + Cc1cncc(-c2nc(NCCc3c[nH]c4ccccc34)c3ncn(C(C)C)c3n2)c1
- viability, T/C (second compound 0.1 µM, first compound 0.0316 µM): 109%
- viability, T/C (second compound 0.1 µM, first compound 0.1 µM): 102%
- viability, T/C (second compound 0.1 µM, first compound 0.316 µM): 107%
- viability, T/C (second compound 0.1 µM, first compound 1 µM): 112%
- viability, T/C (second compound 0.1 µM, first compound 3.16 µM): 86.4%
- viability, T/C (second compound 0.1 µM, first compound 10 µM): 29.7%
- viability, T/C (second compound 0.316 µM, first compound 0.0316 µM): 107%
- viability, T/C (second compound 0.316 µM, first compound 0.1 µM): 98.4%
- viability, T/C (second compound 0.316 µM, first compound 0.316 µM): 97.2%
- viability, T/C (second compound 0.316 µM, first compound 1 µM): 109%
- viability, T/C (second compound 0.316 µM, first compound 3.16 µM): 95%
- viability, T/C (second compound 0.316 µM, first compound 10 µM): 31.3%
- viability, T/C (second compound 1 µM, first compound 0.0316 µM): 85.3%
- viability, T/C (second compound 1 µM, first compound 0.1 µM): 82.7%
- viability, T/C (second compound 1 µM, first compound 0.316 µM): 99.1%
- viability, T/C (second compound 1 µM, first compound 1 µM): 87.2%
- viability, T/C (second compound 1 µM, first compound 3.16 µM): 81.9%
- viability, T/C (second compound 1 µM, first compound 10 µM): 30.3%
- viability, T/C (second compound 3.16 µM, first compound 0.0316 µM): 54.4%
- viability, T/C (second compound 3.16 µM, first compound 0.1 µM): 60.1%
- viability, T/C (second compound 3.16 µM, first compound 0.316 µM): 62.5%
- viability, T/C (second compound 3.16 µM, first compound 1 µM): 60.1%
- viability, T/C (second compound 3.16 µM, first compound 3.16 µM): 49.8%
- viability, T/C (second compound 3.16 µM, first compound 10 µM): 24.6%
- viability, T/C (second compound 10 µM, first compound 0.0316 µM): 15.5%
- viability, T/C (second compound 10 µM, first compound 0.1 µM): 19.7%
- viability, T/C (second compound 10 µM, first compound 0.316 µM): 17.1%
- viability, T/C (second compound 10 µM, first compound 1 µM): 17.1%
- viability, T/C (second compound 10 µM, first compound 3.16 µM): 17.5%
- viability, T/C (second compound 10 µM, first compound 10 µM): 15.2%

- IC50 (curve of compound): 4.59 µM and 4.22 µM and 7.2 µM
SMILES: CC1(C)CCC(CN2CCN(c3ccc(C(=O)NS(=O)(=O)c4ccc(NCC5CCOCC5)c([N+](=O)[O-])c4)c(Oc4cnc5[nH]ccc5c4)c3)CC2)=C(c2ccc(Cl)cc2)C1
- viability, T/C (compound 0.0316 µM): 110% and 95.6% and 109%
- viability, T/C (compound 0.1 µM): 109% and 91.1% and 99.6%
- viability, T/C (compound 0.316 µM): 91.2% and 87.2% and 101%
- viability, T/C (compound 1 µM): 94.4% and 79.7% and 98%
- viability, T/C (compound 3.16 µM): 59.5% and 62.4% and 71.5%
- viability, T/C (compound 10 µM): 24.6% and 16.2% and 41.4%

- IC50 [1]: 0.00675 µM
- IC50 [2]: 0.00648 µM
- IC50 [3]: 0.0056 µM
- IC50 [4]: 0.00363 µM
- IC50 [5]: < 0.000949 µM
SMILES: CC(C)CC(NC(=O)C(Cc1ccccc1)NC(=O)c1cnccn1)B(O)O (configuration not stated) + Cc1cncc(-c2nc(NCCc3c[nH]c4ccccc34)c3ncn(C(C)C)c3n2)c1
- viability, T/C (second compound 0.1 µM, first compound 0.000949 µM): 112%
- viability, T/C (second compound 0.1 µM, first compound 0.003 µM): 114%
- viability, T/C (second compound 0.1 µM, first compound 0.00949 µM): 23.6%
- viability, T/C (second compound 0.1 µM, first compound 0.03 µM): 1.75%
- viability, T/C (second compound 0.1 µM, first compound 0.0949 µM): 0.64%
- viability, T/C (second compound 0.1 µM, first compound 0.3 µM): 0.17%
- viability, T/C (second compound 0.316 µM, first compound 0.000949 µM): 103%
- viability, T/C (second compound 0.316 µM, first compound 0.003 µM): 99%
- viability, T/C (second compound 0.316 µM, first compound 0.00949 µM): 25.7%
- viability, T/C (second compound 0.316 µM, first compound 0.03 µM): 1.08%
- viability, T/C (second compound 0.316 µM, first compound 0.0949 µM): 0.32%
- viability, T/C (second compound 0.316 µM, first compound 0.3 µM): 0.14%
- viability, T/C (second compound 1 µM, first compound 0.000949 µM): 79.2%
- viability, T/C (second compound 1 µM, first compound 0.003 µM): 87.7%
- viability, T/C (second compound 1 µM, first compound 0.00949 µM): 21.8%
- viability, T/C (second compound 1 µM, first compound 0.03 µM): 0.9%
- viability, T/C (second compound 1 µM, first compound 0.0949 µM): 0.08%
- viability, T/C (second compound 1 µM, first compound 0.3 µM): 0.13%
- viability, T/C (second compound 3.16 µM, first compound 0.000949 µM): 52.5%
- viability, T/C (second compound 3.16 µM, first compound 0.003 µM): 61%
- viability, T/C (second compound 3.16 µM, first compound 0.00949 µM): 16.3%
- viability, T/C (second compound 3.16 µM, first compound 0.03 µM): 0.59%
- viability, T/C (second compound 3.16 µM, first compound 0.0949 µM): 0.07%
- viability, T/C (second compound 3.16 µM, first compound 0.3 µM): 0.16%
- viability, T/C (second compound 10 µM, first compound 0.000949 µM): 16.7%
- viability, T/C (second compound 10 µM, first compound 0.003 µM): 16.9%
- viability, T/C (second compound 10 µM, first compound 0.00949 µM): 1.8%
- viability, T/C (second compound 10 µM, first compound 0.03 µM): 0.43%
- viability, T/C (second compound 10 µM, first compound 0.0949 µM): 0.16%
- viability, T/C (second compound 10 µM, first compound 0.3 µM): 0.22%
